test system: panelist; test: Odor detection threshold (ODT) by gas chromatograph with sniff port; design: species or system human; conditions: GC sniff port, average across panelists
Method: Odor detection thresholds are determined using a gas chromatograph. The gas chromatograph is calibrated to determine the exact volume of material injected by the syringe, the precise split ratio, and the hydrocarbon response using a hydrocarbon standard of known concentration and chain-length distribution. The air flow rate is accurately measured and, assuming the duration of a human inhalation to last […], the sampled volume is calculated. […] A panelist sniffs the GC effluent and identifies the retention time when odor is noticed. The average across all panelists determines the threshold of noticeability. […] Typical gas chromatograph parameters for determining odor detection thresholds are listed below. • GC: 5890 Series II with FID detector • 7673 Autosampler • Column: J&W Scientific DB-1 • Length 30 meters ID 0.25 mm film thickness 1 micron • Method: • Split Injection: 17/1 split ratio • Autosampler: 1.13 microliters per injection • Column Flow: 1.10 mL/minute • Air Flow: 345 mL/minute • Inlet Temp. 245° C. • Detector Temp. 285° C. • Temperature Information • Initial Temperature: 50° C. • Rate: 5 C/minute • Final Temperature: 280° C. • Final Time: 6 minutes • Leading assumptions: • (i) 12 seconds per sniff • (ii) GC air adds to sample dilution A-High Impact Accord (“HIA”) Perfume Ingredients of Class 1

Compound	ODT [PPB]
CC1C(C)(C)C2=C(C(=O)CCC2)C1(C)C (stereo not shown) [6,7Dihydro-1,1,2,3,3-Penta-Methyl-4(5H)-Indanone]	<50
CC(=O)/C=C/C1=C(C)CCCC1(C)C [Ionone Beta]	<50
CC(C)=CC1CC(C)CCO1 (stereo not shown) [Rose Oxide]	<50
COc1ccc(C=O)cc1 [Anisic Aldehyde]	<50
CCCCCCC#CC(=O)OC [Methyl Octine Carbonate]	<50
CC/C=C\CCOC(=O)c1ccccc1O [Cis-3-Hexenyl Salicylate]	<50
O=C1CCCC=CCCCCCCCCCC1 [5-Cyclohexadecenone-1]	<50
CC(=O)OC1CC2CC1C1CC=CC21 (stereo not shown) [Flor Acetate]	<50
CCCC(O)CCC1C(C)CCCC1(C)C (stereo not drawn) [Cyclohexane Propanol 2,2,6 Trimethyl-Alpha-Propyl.]	<50
CC(CO)C1CCCCCCCCCCC1 (stereo not shown) [2-(Cyclododecyl)-propan-1-ol]	<50
CC1=CC(C)C(C=O)CC1 (stereo not shown) [Cyclal C]	<50
3-Methyl-4(5)-Cyclopentadecenone	<50
CC1=CCC(C=CC(C)C(C)O)C1(C)C (stereo not shown) [3-Methyl-5-(2,2,3,trimethyl-3-cyclopenten-1-yl)-4-penten-2-ol]	<50
CC(=O)C1(C)CC2=C(CCCC2(C)C)CC1C (stereo not shown) [7,Acetyl,1,2,3,4,5,6,7,8-Octahydro-1,1,6,7-Tetra Methyl Naphthalene]	<50
CC1COC(C)(c2ccc3c(c2)C(C)(C)CCC3(C)C)O1 (stereo not shown) [2,4,Dimethyl-2-(1,1,4,4 tetramethyl) tetralin-6-yl)-13-dioxolane]	<50
CCC12CCC3C(C)(C)CCCC3(C)C1CCO2 (stereo not shown) [Naphtho(2.1-B)-furan,3A-Ethyl Dodecahydro-6,6,9A-Trimethyl]	<50
Oxacyclohexadecen-2-one	<50
CC1=CCC(C(C)CC2CCCC2=O)CC1 (stereo not shown) [2-(2-(4 methyl-3-Cyclohexen-1-yl)propyl)-cyctopentanone.]	<50
C=CC(C)(O)CCC=C(C)C (stereo not shown) [Linalool]	<50
CCOC(=O)C(C)CC (stereo not shown) [Ethyl-2-methyl Butyrate]	<50
CCCCCCCCCCC=CC#N [Tridecene-2-nitrile]	<50
CCC(=O)OC1CC2CC1C1CC=CC21 (stereo not shown) [Frutene]	<50

From patent US6869923B1, “Perfume compositions” (Procter & Gamble Company, priority 1998, dated 2005)
